# In patent publication US20100256043A1, “USE OF A PEPTIDE AS A THERAPEUTIC AGENT” (priority 2007, published 2010):
# Residues, ends and D or L forms follow the SMILES beside them.
# Experiments:
# HepG2-2.2.15 cells = experiment: Cell viability (dye uptake) in the HBV assay; assay type: cell-based; conditions: peptide 10 micrograms per ml
# HIV-1IIIB = experiment: HIV-1 antiviral assay (CPE reduction) in CEM-SS cells; assay type: cell-based; conditions: peptide 10 micrograms per ml; 6 days post-infection; MTS readout
# CEM-SS cells = experiment: Cytotoxicity (MTS cell viability) in the HIV-1 assay; conditions: peptide 10 micrograms per ml
# [1] = system: hepatitis B virus (HBV) ayw strain; experiment: HBV replication assay in HepG2-2.2.15 cells (TaqMan PCR of secreted HBV DNA); assay type: cell-based; conditions: peptide 10 micrograms per ml, six days, HBV DNA in supernatant
# [2] = Cell viability (dye uptake) in the HBV assay; assay type: cell-based; conditions: human, HepG2-2.2.15 cells, peptide 10 micrograms per ml
# Human A549 cells [3] = experiment: Propidium iodide cell cycle assay; assay type: cell-based; conditions: 10 micrograms per ml, 24 hours, FACS
# [4] = system: Human Peripheral Blood Mononuclear Cells (PBMC), B cell proliferation; experiment: B cell proliferation assay (SAC plus IL-2 stimulated PBMC, 3H-thymidine); assay type: cell-based; conditions: 10 micrograms per ml
# RAW 264.7 cells = experiment: Phagocytosis assay (Fluorescein-labeled Escherichia coli, flow cytometry); assay type: cell-based, mouse; conditions: 10 micrograms per ml, Fluorescein-labeled E. coli
# Protocol: The samples were then analyzed by flow cytometry to determine the amount of phagocytosis as a function of brightness (the greater the phagocytic activity, the more fluorescence in the macrophage population). Data are reported as % positive and the mean fluorescence intensity (MFI) of positively stained cells.
# Human A549 cells [5] = experiment: Apoptosis induction assay (Annexin-5); assay type: cell-based; conditions: 24 hours
# Protocol: Human A549 cells (carcinomic human alveolar basal epithelial cells) were utilized in the experiments employing the Annexin-5 apoptosis assay. […] Test peptide-micrograms per ml—were exposed for 24 hours to the A549 cells before they were analyzed for signs of apoptosis.
# Human A549 cells [6] = experiment: Apoptosis prevention assay (C2 ceramide, Annexin-5); assay type: cell-based; conditions: 10 micrograms per ml pretreatment 30 min
# Source text: Human A549 cells (carcinomic human alveolar basal epithelial cells) were utilized in the experiments employing the Annexin-5 apoptosis assay.
# [7] = system: spleen cells of Ovalbumin-immunized Balb/c mice; experiment: Th1/Th2 cytokine profiling assay (Ovalbumin-restimulated spleen cells, CBA kit); assay type: cell-based, mouse; conditions: 10 micrograms per ml; Ovalbumin restimulation; 72 hours
# [8] = system: macrophages differentiated from human PBMC, TNF alpha production; experiment: TNF alpha production assay (LPS-stimulated macrophages, ELISA); assay type: cell-based; conditions: 10 micrograms per ml, lipopolysaccharide 200 ng/ml, overnight
# Source text: Not stimulated macrophages served as negative background control.
# [9] = system: Primary Human endothelial cells (HUVEC); experiment: Endothelial cell migration assay; assay type: cell-based; conditions: 10 micrograms per ml, 22 hours
# HUVEC = experiment: Endothelial tube formation assay; assay type: cell-based, human; conditions: 10 micrograms per ml, 20 hours
# Source text: Positive control was vehicle only.
# [10] = system: human peripheral blood mononuclear cells (PBMC), cyclic AMP generation; experiment: cAMP induction assay (ELISA); assay type: cell-based; conditions: 10 min at 37° C., forskolin 50 micrograms per ml
# Protocol: The cAMP kit was used as an immunoassay for the quantitative determination of cyclic AMP generation in human peripheral blood mononuclear cells (PBMC). PBMC were placed in 96-well microtitier plates (50 microliters of cells at 4×10^6/ml) and 50 microliters of medium alone (background control), forskolin (cAMP positive control; 50 micrograms per ml), or test peptide were added. […] NaOH was added to neutralize the samples. Plates were centrifuged for 15 min at 2500 rpm and the supernatants removed. The supernatants (diluted 2-fold in assay buffer) were then assayed for the levels of cAMP by ELISA.
# in vitro [11] = conditions: human, CEM-SS cells (uninfected; cells plus peptide only)
# in vitro [12] = conditions: human, MRC-5 cells (embryonal lung fibroblasts)
# HCMV strain AD169 = experiment: HCMV plaque reduction assay in MRC-5 cells; conditions: HCMV AD169 in MRC-5 cells; peptide 10 micrograms per ml; 7-10 days
# [13] = system: Human Peripheral Blood Mononuclear Cells (PBMC), T cell proliferation; experiment: T cell proliferation assay (PHA-stimulated PBMC, 3H-thymidine); conditions: 10 micrograms per ml
compound,measurement,setting,value
"Nc1ccn([C@@H]2CS[C@H](CO)O2)c(=O)n1 [Compound 3TC, Lamivudine, reference compound]",% Cell viability,HepG2-2.2.15 cells,95.8%
"Cc1cn([C@H]2C[C@H](N=[N+]=[N-])[C@@H](CO)O2)c(=O)[nH]c1=O [AZT, reference compound]",% CPE reduction in HIV-1 infected CEM-SS cells,HIV-1IIIB,99%
same,% Cell viability,CEM-SS cells,97%
CC[C@H](C)[C@H](NC(=O)[C@H](C)NC(=O)CNC(=O)[C@H](CCCNC(=N)N)NC(=O)[C@H](C)NC(=O)[C@H](CC(C)C)NC(=O)[C@H](CCC(=O)O)NC(=O)[C@H](CC(C)C)NC(=O)[C@H](C)NC(=O)[C@@H](N)CCC(=O)O)C(=O)N[C@@H](Cc1ccccc1)C(=O)N[C@@H](CCC(N)=O)C(=O)N[C@@H](C)C(N)=O [BINP] (H-EALELARGAIFQA-NH2),% CPE reduction in HIV-1 infected CEM-SS cells,HIV-1IIIB,0.0%
same,% inhibition of HBV replication in HEP G2 cells,[1],8.2%
same,"viability at 144 h, 10 micrograms per ml",[2],96.9%
same,Cell cycle analysis G0/G1,Human A549 cells [3],57.9
same,Cell cycle analysis G2/M,Human A549 cells [3],12.2
same,Cell cycle analysis S,Human A549 cells [3],29.9
same,% of SAC/IL2 induced control,[4],96.5%
same,% of control phagocytosis,RAW 264.7 cells,134.3%
same,% of induction,Human A549 cells [5],0.2%
same,% prevention of ceramide induced apoptosis,Human A549 cells [6],0.0%
same,IFNγ spleen cells; TH1 response (% of control),[7],133.9 % of control
same,IL-2 spleen cells (% of control),[7],0.0 % of control
same,IL-4 spleen cells; TH2 response (% of control),[7],0.0 % of control
same,IL-5 spleen cells; TH2 response (% of control),[7],50.3 % of control
same,TNF-a spleen cells; TH1 response (% of control),[7],97.0 % of control
same,% of LPS induction,[8],102.3%
same,% inhibition of migration,[9],8%
same,% inhibition of tube formation,HUVEC,−1%
same,% of Forskolin (positive control) induced cAMP formation,[10],44.3%
same,viability at 10 micrograms per ml,in vitro [11],99.1%
same,viability at 144 h,in vitro [12],99.7%
same,% plaque reduction,HCMV strain AD169,1.0%
same,% of PHA induced Control,[13],96.2%
